# Measurements: US20210163929A1, “METHODS AND COMPOSITIONS FOR THE TREATMENT OF HEPATIC AND METABOLIC DISEASES” (The Regents of the University of California, priority 2018, published 2021)
# Entries after “also recorded” stand apart in the source; their conditions may differ.
# Key:
# [1] = system: FGF21 signaling in Huh7 cells; assay: Huh7 cells infected/transfected with miR-22 or miR-22 inhibitors, mRNA and Western blot; assay type: cell-based, human; conditions: adenovirus control or miR-22 inhibitors followed by DMSO or OCA 5 μM for 6 h
# Text: However, miR-22 was induced in the livers and adipose tissues of WD-fed mice (FIG. 15B). Similarly, using human liver biopsy specimens, miR-22 levels were positively associated with hepatic fat content and inversely correlated with the mRNA levels of PGC-1α, a key regulator of mitochondrial biogenesis (FIG. 15C). […] To study the downstream effects of miR-22, miR-22 mimics (ID: MIMAT0000077, […] (SEQ ID NO:2), Applied Biological Materials Inc.) were used to transfect human liver Huh7 cells.
# (§1) Cell culture: Huh7 cells were obtained from Japanese Collection of Research Bioresources and maintained in DMEM with 10% FBS. Cells were treated with DMSO, OCA (5 or 20 μM; Apexbio Technology LLC, Houston, Tex., USA) in serum-free media for indicated time. Cells were plated (1×10^6 cells per 60-mm dish, 2×10^5 cells per 6-well plates, and 1×10^5 cells per 24-well plates) overnight prior to treatment or infection.
# Constructs and luciferase reporter assay: The 3′ untranslated region (3′-UTR) of the FGFR1 gene containing the putative binding site for miR-22 and the entire 3′-UTR of the FGF21 gene (105 bp) was cloned into the psiCHECK2 vector (Promega, Madison, Wis., USA) using NotI and XhoI. For cell infection, adenovirus (negative control), adenoviral-delivered miR-22 (miR-22), or adenoviral-miR-22 inhibitors (SEQ ID NO:1; Applied Biological Materials Inc., Richmond, BC) were used. Forty-eight h post infection, cells were transfected with psiCHECK2-FGR1-3′UTR or psiCHECK2-FGF21 3′UTR using Lipofectamine 2000 (Thermo Fisher Scientific). Twenty-four h later, cells were harvested for firefly and Renilla luciferase assay using the Dual-luciferase Reporter system (Promega). Renilla luciferase activity was standardized to firefly luciferase activity.
# (§2) Western blot: Western blot was performed as described previously (26). Antibodies used were anti-FGFR1, FGF21, FASN, phosphor (P)-AMPK, total (T)-AMPK, phosphor (P)-ERK1/2, and total (T)-ERK1/2 (Cell Signaling Technology, Beverly, Mass., USA), β-ACTIN (MilliporeSigma), CD36 (Bioss Antibodies Inc., Woburn, Mass., USA), CYCLIN A2, PGC1α (Novus Biologicals, LLC, Littleton, Colo., USA), and PPARα (Santa Cruz Biotechnology, Santa Cruz, Calif., USA).
# [2] = system: patients with NASH and T2DM; conditions: cited from earlier work
# miR-22 in HCT116 cells [3] = assay: miR-22 induction in HCT116 cells treated with bile acids or HDAC inhibitors; assay type: cell-based, human
# [4] = system: Western diet-induced obese C57BL/6 male mice; assay: WD-induced obese mice treated with OCA, miR-22 inhibitors or both for 3 weeks; assay type: in vivo, mouse
# Procedure: Mice: C57BL/6 wild-type (WT) male mice (Charles River Laboratories, Inc., Wilmington, Mass., USA) were housed in regular filter-top cages at 22° C. with a 12 h/12 h light/dark cycle. For Western diet (WD)-induced obesity models, mice were fed a WD (21% fat, 34% sucrose, and 0.2% cholesterol, w/w) or control diet (CD 5% fat, 12% sucrose, and 0.01% cholesterol, w/w; Harlan Teklad, Indianapolis, Ind., USA) after weaning (3 weeks). When those mice were 7-months old, WD-fed mice were randomly assigned to […] and received vehicle (0.5% carboxyl methyl cellulose sodium), OCA ([…], daily, oral gavage), miR-22 inhibitors (1×10^9 PFU, tail vein injection, once a week), and the combination of OCA and miR-22 inhibitors for three weeks. For alcohol-induced steatosis models, 3-month-old C57BL/6 male mice were initially fed a control Lieber-DeCarli diet (F1259SP, Bio-Serv, Flemington, N.J., USA) ad libitum for 5 days followed by 5% alcohol supplementation for 21 days (F1258SP, Bio-Serv). Then, those alcohol-fed mice received adenovirus (negative control) or miR-22 inhibitors (1×10^9 PFU, tail vein injection, 3 times in 10 days). All the mice were euthanized 1 day after the last viral injection. Animal experiments were conducted in accordance with the National Institutes of Health Guide for the Care and Use of Laboratory Animals under protocols approved by the Institutional Animal Care and Use Committee of the University of California, Davis.
# Biochemical analysis: Hepatic triglyceride and cholesterol (BioAssay Systems, Hayward, Calif., USA) levels and serum lipopolysaccharide (LPS) (Thermo Fisher Scientific), alanine transaminase (ALT) (Pointe Scientific), and alkaline phosphatase (ALP) (Pointe Scientific) levels were quantified according to the manufacturer's instructions.
# Insulin tolerance test: After 6 h food deprivation, tail vein blood was used to establish fasting blood glucose levels. For insulin tolerance testing, insulin (1 U/kg body weight, i.p.; MilliporeSigma, Burlington, Mass., USA) was given followed by measuring blood glucose level at various times with the OneTouch Ultra 2 (Johnson & Johnson Co., New Brunswick, N.J., USA). The area under the curve (AUC) of the blood glucose levels over time was calculated.
# Serum FGF21 and glucagon-like peptide (GLP-1) secretion assay: Serum FGF21 levels were quantified by ELISA (Boster Biological Technology, Pleasanton, Calif., USA). For GLP-1 secretion assays, mice were unfed for 12 h followed by orally administration of dipeptidyl peptidase-4 inhibitor, sitagliptin ([…]; TSZ Chem, Framingham, Mass., USA) and a liquid diet (Ensure Plus, […]; Ross Laboratories, Columbus, Ohio, USA), which contains 15% protein, 57% carbohydrate, and 28% fat to stimulate GLP-1 secretion, as previously described (25). Blood samples were collected immediately (time 0) as well as 15, and 30 min after Ensure Plus feeding. Serum GLP-1 was quantified by a ELISA kit (RayBiotech Life, Norcross, Ga., USA).
# [5] = system: FGF21 signaling and miR-22 in Huh7 cells; assay: mRNA and protein levels in Huh7 cells treated with OCA/INT-747, CDCA, butyrate or RA plus butyrate; assay type: cell-based, human; conditions: for mRNA and protein levels of FGF21, FGFR1 and PGC1α: OCA 5 or 20 μM
# Procedure: as §1
# Gene expression quantification: Total RNA was extracted using TRIzol Reagent (Thermo Fisher Scientific, Waltham, Mass., USA), and cDNA was generated using High Capacity RNA-to-cDNA Kit (Applied Biosysterms, Carlsbad, Calif., USA). qRT-PCR was performed on ABI 7900HT Fast Real-time PCR system using Power SYBR® Green PCR Master Mix (Applied Biosysterms).
# as §2
# miR-22 in HCT116 cells [6] = assay: miR-22 induction in HCT116 cells treated with bile acids or HDAC inhibitors; assay type: cell-based, human; remark: listed apart in the source
# Procedure: A time course study in which HCT116 cells were treated by 150 μM CDCA for indicated times. […] Data are presented as mean+/−S.D. * denotes p<0.05.
# Data are shown as mean+/−S.D. * p<0.05; ** p<0.01; ***p<0.001.
# OCA is a semi-synthetic bile acid, which as the structure of 6α-ethyl-chenodeoxycholic acid.
# [7] = system: hepatic inflammation and fibrosis; conditions: 30 mg/kg/day, gavage, every 2 days for 4 weeks; cited from earlier work
# [8] = 1-day treatment, SAHA (5, butyrate 5 mM, propionate 10 mM, valerate 10 mM)
compound,measurement,setting,value
"CC[C@H]1[C@@H](O)[C@@H]2[C@H](CC[C@]3(C)[C@@H]([C@H](C)CCC(=O)O)CC[C@@H]23)[C@@]2(C)CC[C@@H](O)C[C@@H]12 [OCA, obeticholic acid]","FGF21, FGFR1, P-AMPK, and P-ERK1/2 protein levels",[1],"same effects in increasing FGF21, FGFR1, P-AMPK, and P-ERK1/2"
same,patients with fibrosis having ≥1 stage of fibrosis improvement,"[2]; clinical trials, 19% in the placebo group, p<0.05",41%
same,patients reaching the primary endpoint of a ≥2-point improvement in NAFLD activity score without worsening fibrosis,"[2]; clinical trials, 21% in the placebo group, p<0.01",57%
same,insulin sensitivity,[2]; clinical trials,improves insulin sensitivity
same,markers of liver inflammation and fibrosis,[2]; clinical trials,reduced markers of liver inflammation and fibrosis
same,deaths and liver injury,[2]; overdose,caused deaths and liver injury
same,miR-22 level,"miR-22 in HCT116 cells [3]; 24 hours, CDCA 50, 100, 150 μM, OCA 25 and 50 μM",induced miR-22
same,hepatic fat accumulation (steatosis score),"[4]; WD-fed 7-month-old mice, 3 weeks, OCA 10 mg/g body weight daily oral gavage, miR-22 inhibitors 1×10^9 PFU once a week",reduced hepatic fat accumulation
same,hepatic cholesterol level,"[4]; WD-fed mice, 3 weeks treatment",reduced hepatic cholesterol level
same,hepatic triglyceride levels,"[4]; WD-fed mice, 3 weeks treatment",did not significantly reduce hepatic triglyceride levels
same,release of GLP-1 (serum),"[4]; WD-fed mice, 3 weeks treatment",stimulated the release of GLP-1
same,serum FGF21 level,"[4]; WD-fed mice, 3 weeks treatment",reduced
same,hepatic FASN and CD36,[4]; diet-induced obese mice,reduced FASN and CD36
same,hepatic FGF21 and FGFR1,[4]; diet-induced obese mice,induced hepatic FGF21 and FGFR1
same,"expression of hepatic Pepck, G6pase, and Fbp1",[4]; reduced by WD intake,reversed those reductions
same,miR-22 level,[5]; 6 h,induced miR-22
same,AMPK and ERK1/2 activation,[5]; 6 hours,activated AMPK and ERK1/2
same,βKlotho protein level,[5]; 6 hours,modestly increased
same,"mRNA and protein levels of FGF21, FGFR1 and PGC1α",[5]; 6 hours,"induced FGF21 signaling by increasing the expression of FGF21, FGF21 receptor (FGFR1), and PGC1α; also recorded: increased mRNA and protein levels of FGF21 and FGFR1 as well as PGC1α"
same,"mRNA and protein levels of FGF21, FGFR1 and PGC1α","[5]; 6 hours, listed as INT-747",markedly increased the mRNA and protein level of FGF21 and FGFR1
same,CCNA2 expression,miR-22 in HCT116 cells [6],reduced CCNA2
same,FXR target FGF19 expression,miR-22 in HCT116 cells [6],induced FXR target FGF19
same,hepatic inflammation and fibrosis,[7],reduces hepatic inflammation and fibrosis
"O=C(CCCCCCC(=O)Nc1ccccc1)NO [SAHA, suberanilohydroxamic acid]",miR-22 level,miR-22 in HCT116 cells [3]; [8],induced miR-22
CC(=O)O [acetate],miR-22 level,miR-22 in HCT116 cells [3]; [8],not able to induce miR-22
O=CO [formate],miR-22 level,miR-22 in HCT116 cells [3]; [8],not able to induce miR-22
CCC(=O)O [propionate],miR-22 level,miR-22 in HCT116 cells [3]; [8],induced miR-22
CCCCC(=O)O [valerate],miR-22 level,miR-22 in HCT116 cells [3]; [8],induced miR-22
